{
  "source": "patent US10434085B2",
  "about": "“Non-aromatic difluoro analogues of resorcylic acid lactones” (The University of North Carolina at Greensboro, priority 2015, dated 2019)",
  "data": [
    {"target": "TaK1-TaB1 (TAK-1 enzyme) (Homo sapiens (Human), UniProt O43318)", "sequence (O43318 other isoform, or with tags, fused parts or gaps)": "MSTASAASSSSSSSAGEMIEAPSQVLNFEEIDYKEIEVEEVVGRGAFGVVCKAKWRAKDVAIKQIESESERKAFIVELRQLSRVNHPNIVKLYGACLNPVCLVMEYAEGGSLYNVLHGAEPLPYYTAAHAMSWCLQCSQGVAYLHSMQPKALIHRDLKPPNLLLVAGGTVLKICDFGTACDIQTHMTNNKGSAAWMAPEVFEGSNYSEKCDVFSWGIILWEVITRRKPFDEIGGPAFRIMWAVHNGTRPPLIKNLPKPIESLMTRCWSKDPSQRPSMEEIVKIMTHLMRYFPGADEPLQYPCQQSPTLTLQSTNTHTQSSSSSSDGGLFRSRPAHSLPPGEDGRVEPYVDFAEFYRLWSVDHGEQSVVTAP", "test": "TaK1-TaB1 inhibitor assay (IC50 of RAL analogues against TAK-1 enzyme)", "type": "biochemical", "details": "Table 1, TAK-1 enzyme", "from_the_text": "(§1) IV. TaK1-TaB1 (Transforming Growth Factor-β Activated Linase-1/TAK-1 Binding Protein 1) Inhibitor Assays", "units": {"IC50": "µM"}, "values": [
      {"compound": "COc1cc(O)c2c(c1)/C=C/C[C@H](O)[C@H](O)C(=O)CCC[C@H](C)OC2=O", "note": "[LL-Z164-1, reference compound]", "IC50": 2.6},
      {"compound": "C/C=C\\C=C/C(=O)[C@@H](O)[C@@H](O)C/C=C/c1cc(OC)cc(OC)c1C(=O)OC", "note": "[Compound 4, Methyl 2-((1E,4S,5S,7Z,9Z)-4,5-dihydroxy-6-oxoundeca-1,7,9-trien-1-yl)-4,6-dimethoxybenzoate]", "IC50": "> 30"},
      {"compound": "COc1cc(O)c2c(c1)/C=C/C[C@@H]1OC(CC(=O)[C@H]1O)C[C@H](C)OC2=O", "note": "[Compound 9, (1^2S,1^3S,8S,E)-1^3,5^3-Dihydroxy-5^5-methoxy-8-methyl-1^3,1^4,1^5,1^6-tetrahydro-1^2H-7-oxa-1(2,6)-pyrana-5(1,2) benzenacyclononaphan-3-ene-1^4,6-dione]", "IC50": "> 30"},
      {"compound": "COc1cc(O)c2c(c1)/C=C/C[C@H](O)[C@H](O)[C@@H](O)/C=C/C[C@H](C)OC2=O", "note": "[zeaenol, reference compound]", "IC50": 10},
      {"compound": "COc1cc(O)c2c(c1)[C@H]1O[C@@H]1C[C@H](O)[C@H](O)C(=O)CCC[C@H](C)OC2=O", "note": "[dihydrohypothemycin, reference compound]", "IC50": "> 30"},
      {"compound": "COc1cc(O)c2c(c1Br)/C=C/C[C@H](O)[C@H](O)C(=O)/C=C\\C[C@H](C)OC2=O", "note": "[Compound 7, (3S,5Z,8S,9S,11E)-13-Bromo-8,9,16-trihydroxy-14-methoxy-3-methyl-3,4,9,10-tetrahydro-1H-benzo[c][1]oxacyclotetradecine-1,7(8H)-dione]", "IC50": 0.36},
      {"compound": "COc1cc2c(c(O)c1Br)C(=O)O[C@@H](C)C/C=C\\C(=O)[C@@H](O)[C@@H](O)C/C=C/2", "note": "[Compound 6, (3S,5Z,8S,9S,11E)-15-Bromo-8,9,16-trihydroxy-14-methoxy-3-methyl-3,4,9,10-tetrahydro-1H-benzo[c][1]oxacyclotetradecine-1,7(8H)-dione]", "IC50": 2.6}
    ]},
    {"target": "TaK1-TaB1 (TAK-1 enzyme) (Homo sapiens (Human), UniProt O43318)", "test": "TaK1-TaB1 inhibitor assay (IC50 of RAL analogues against TAK-1 enzyme)", "type": "biochemical", "details": "among synthesized analogues", "from_the_text": "as §1", "values": [
      {"compound": "COC1=CC(=O)C2=C(/C=C/C[C@H](O)[C@H](O)C(=O)/C=C\\C[C@H](C)OC2=O)C1(F)F", "note": "[Compound 5, (3S,5Z,8S,9S,11E)-13,13-Difluoro-8,9-dihydroxy-14-methoxy-3-methyl-3,4,9,10-tetrahydro-1H benzo[c][1]oxacyclotetradecine-1,7,16(8H,13H)-trione]", "activity in TAK-1 assay": "relatively active"}
    ]},
    {"target": "TaK1-TaB1 (TAK-1 enzyme) (Homo sapiens (Human), UniProt O43318)", "test": "TaK1-TaB1 inhibitor assay (IC50 of RAL analogues against TAK-1 enzyme)", "type": "biochemical", "details": "restated in Table 2 beside docking scores", "from_the_text": "as §1", "units": {"IC50": "µM"}, "values": [
      {"compound": "C/C=C\\C=C/C(=O)[C@@H](O)[C@@H](O)C/C=C/c1cc(OC)cc(OC)c1C(=O)OC", "note": "[Compound 4, Methyl 2-((1E,4S,5S,7Z,9Z)-4,5-dihydroxy-6-oxoundeca-1,7,9-trien-1-yl)-4,6-dimethoxybenzoate]", "IC50": "> 30"},
      {"compound": "COc1cc(O)cc2c1C(=O)O[C@@H](C)CCCCC/C=C/C(=O)C2", "note": "[Greensporone C, reference compound]", "IC50": "> 30"},
      {"compound": "COc1cc(O)c2c(c1)/C=C/C[C@@H]1OC(C)(C)O[C@@H]1C(=O)/C=C\\C[C@H](C)OC2=O", "note": "[Compound 10, (3aS,5Z,8S,15E,17aS)-11-Hydroxy-13-methoxy-2,2,8-trimethyl-7,8,17,17a-tetrahydro-4H-benzo[c][1,3]dioxolo[4,5-h][1]oxacyclotetradecine-4,10(3aH)-dione]", "IC50": 0.38},
      {"compound": "COc1c(Br)c(O)c2c(c1Br)/C=C/C[C@H](O)[C@H](O)C(=O)/C=C\\C[C@H](C)OC2=O", "note": "[Compound 8, (3S,5Z,8S,9S,11E)-13,15-Dibromo-8,9,16-trihydroxy-14methoxy-3-methyl-3,4,9,10-tetrahydro-1H-benzo[c][1]oxacyclotetradecine-1,7(8H)-dione]", "IC50": 8.9}
    ]},
    {"test_system": "not given", "test": "not given", "details": "cited from earlier work", "values": [
      {"compound": "COc1cc(O)c2c(c1)/C=C/C[C@H](O)[C@H](O)C(=O)/C=C\\C[C@H](C)OC2=O", "note": "[(5Z)-7-oxozeaenol]", "stability in plasma": "instability in plasma"}
    ]}
  ]
}
